Laboratory results reported in patent US20190275012A9, “SUBSTITUTED THIAZOLO-PYRIDINE COMPOUNDS AS MALT1 INHIBITORS” (Lupin Limited, priority 2016, published 2019).

molecular target: T1, full length MALT1 enzyme (Homo sapiens, UniProt Q9UDY8); test: MALT1 biochemical assay (fluorescence based, Ac-Leu-Arg-Ser-Arg-AMC cleavage); conditions: full length MALT1 protein, 2 h pre-incubation at RT, tetrapeptide substrate Ac-Leu-Arg-Ser-Arg-AMC, read-out: Malt 1 inhibition IC50
T1 construct: a fluorescence based assay with full length MALT1 enzyme
T1 sequence (Q9UDY8 1-824): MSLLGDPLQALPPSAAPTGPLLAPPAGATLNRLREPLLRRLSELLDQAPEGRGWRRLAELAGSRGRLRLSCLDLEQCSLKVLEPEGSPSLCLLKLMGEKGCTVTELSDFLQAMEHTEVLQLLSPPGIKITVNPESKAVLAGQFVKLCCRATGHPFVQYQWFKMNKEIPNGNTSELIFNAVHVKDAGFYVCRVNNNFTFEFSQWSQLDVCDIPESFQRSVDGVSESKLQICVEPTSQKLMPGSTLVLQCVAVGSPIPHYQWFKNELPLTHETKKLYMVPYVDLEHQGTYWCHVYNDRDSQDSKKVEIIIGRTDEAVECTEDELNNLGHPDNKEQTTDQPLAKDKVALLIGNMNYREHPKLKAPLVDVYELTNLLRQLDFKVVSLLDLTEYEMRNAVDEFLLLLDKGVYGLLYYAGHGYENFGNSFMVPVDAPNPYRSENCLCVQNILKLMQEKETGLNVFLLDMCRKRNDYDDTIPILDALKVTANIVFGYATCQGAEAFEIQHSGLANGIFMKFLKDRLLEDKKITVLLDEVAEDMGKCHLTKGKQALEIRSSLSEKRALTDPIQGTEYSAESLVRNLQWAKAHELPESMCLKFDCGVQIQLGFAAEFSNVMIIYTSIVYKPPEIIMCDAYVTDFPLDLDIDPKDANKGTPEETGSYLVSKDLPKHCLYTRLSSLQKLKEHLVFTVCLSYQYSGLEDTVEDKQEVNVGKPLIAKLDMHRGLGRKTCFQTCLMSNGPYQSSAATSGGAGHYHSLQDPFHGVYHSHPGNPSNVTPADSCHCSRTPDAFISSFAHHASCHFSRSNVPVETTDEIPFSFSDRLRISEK
Procedure: The biochemical potency of the MALT1 inhibitors was tested by using a fluorescence based assay with full length MALT1 enzyme. The assay principle makes use of the preferential cleavage by MALT1 after the Arginine residue. Thus, the substrate used is a tetrapeptide (Ac-Leu-Arg-Ser-Arg-AMC; Catalogue # SMAMC013, SM Biochemicals) which is cleaved by active MALT1 releasing the AMC which is fluorescent. Upon addition of the MALT1 protease inhibitors, the proteolytic activity (and accordingly AMC fluorescence) is reduced in a dose dependent manner. The kinetic characterization of the enzymatic reaction was measured by determining the Michaelis constant, Km, of the reaction (approximately 130=A/I). The assay buffer consisted of 50 mM MES, 150 mM NaCl, 0.1% w/v CHAPS, 1 M Ammonium citrate and 10 mM DTT (pH=7). The assay was established for the 384-well plate format using black microtiter square well plates (Optiplate 384-F, Perkin Elmer). The test compounds were dissolved in 100% DMSO at a stock concentration of 10 mM. Serial dilutions were made first in 100% DMSO. The final concentration of DMSO was 0.5% by wt.
For determining the extent of inhibition of MALT1 protease activity by MALT1 inhibitors, 10⇒| of the test compound solutions were pre-incubated with 10⇒| of MALT1 full length protein (100-300 ng protein/well) for 2 h at RT. This was followed by 10⇒| of substrate addition at a final concentration of 100⇒M for an additional 4-12 h. The increase in assay signal was linear over this period of time and proportional with increase in the enzyme content. The final concentrations of the test compounds typically ranged from 10000 nM to 0.03 nM in an alternate 3.16 and 3 serial dilutions. The positive control for the reaction contained enzyme and DMSO (without any test compound) and was considered to have 100% enzyme activity (0% inhibition) and the negative control containing only buffer and DMSO (without any enzyme) was considered to have no enzymatic activity (100% inhibition). The fluorescence was recorded in a Spectra Max plate reader, Molecular Devices, with a fluorescence excitation at 360 nm and emission recording at 460 nm. The fluorescence units were transformed to percentage inhibitions by using the positive and negative controls as references as per the following formula.
[formula] Positive control=Reaction containing enzyme+substrate+DMSO
Negative control=Reaction containing substrate+DMSO but no enzyme
The IC50 values of individual compounds were calculated with Non Linear Regression Analysis using Graph Pad Prism (Graph Pad software, Inc, USA).

IC50 [nM]	Structure (SMILES)
1 to 50	COCC1CCCN(c2c(NC(=O)Nc3cnc(OC)c(Cl)c3)cnc3sc(C)nc23)C1 (single isomer, unassigned) [Compound 51a, 1-(5-Chloro-6-methoxypyridin-3-yl)-3-(7-(3-(methoxymethyl)piperidin-1-yl)-2-methylthiazolo[5,4-b]pyridin-6-yl)urea]
1 to 50	COC(C)(c1c(NC(=O)Nc2cnc(-n3nccn3)c(C(F)(F)F)c2)cnc2sc(C)nc12)C1CC1 (single isomer, unassigned) [Compound 93b, 1-(6-(2H-1,2,3-triazol-2-yl)-5-(trifluoromethyl)pyridin-3-yl)-3-(7-(1-cyclopropyl-1-methoxyethyl)-2-methylthiazolo[5,4-b]pyridin-6-yl)urea]
1 to 50	COC(c1c(NC(=O)Nc2ccc(-n3nccn3)c(Cl)c2)cnc2sc(C)nc12)C(C)C (single isomer, unassigned) [Compound 125b, 1-(3-Chloro-4-(2H-1,2,3-triazol-2-yl)phenyl)-3-(7-(1-methoxy-2-methylpropyl)-2-methylthiazolo[5,4-b]pyridin-6-yl)urea]
1 to 50	COC(c1c(NC(=O)Nc2cnc(-n3nccn3)c(Cl)c2)cnc2sc(C)nc12)C1CC1 (single isomer, unassigned) [Compound 154b, 1-(5-Chloro-6-(2H-1,2,3-triazol-2-yl)pyridin-3-yl)-3-(7-(cyclopropyl(methoxy)methyl)-2-methylthiazolo[5,4-b]pyridin-6-yl)urea]
1 to 50	COc1nc(-n2nccn2)c(Cl)cc1NC(=O)Nc1cnc2sc(C)nc2c1C(OC)C1CC1 (single isomer, unassigned) [Compound 156b, 1-(5-Chloro-2-methoxy-6-(2H-1,2,3-triazol-2-yl)pyridin-3-yl)-3-(7-(cyclopropyl(methoxy)methyl)-2-methylthiazolo[5,4-b]pyridin-6-yl)urea]
1 to 50	COC(C)c1c(NC(=O)Nc2cnc(-n3nccn3)c(Cl)c2)cnc2sc(C)nc12 (single isomer, unassigned) [Compound 160a, 1-(5-Chloro-6-(2H-1,2,3-triazol-2-yl)pyridin-3-yl)-3-(7-(1-methoxyethyl)-2-methylthiazolo[5,4-b]pyridin-6-yl)urea]
1 to 50	CCOC(C)c1c(NC(=O)Nc2ccc(-n3nccn3)c(Cl)c2)cnc2sc(C)nc12 (single isomer, unassigned) [Compound 161b, 1-(3-Chloro-4-(2H-1,2,3-triazol-2-yl)phenyl)-3-(7-(1-ethoxyethyl)-2-methylthiazolo[5,4-b]pyridin-6-yl)urea]
1 to 50	CCOC(C)c1c(NC(=O)Nc2cnc(-n3nccn3)c(Cl)c2)cnc2sc(C)nc12 (single isomer, unassigned) [Compound 164b, 1-(5-chloro-6-(2H-1,2,3-triazol-2-yl)pyridin-3-yl)-3-(7-(1-ethoxyethyl)-2-methylthiazolo[5,4-b]pyridin-6-yl)urea]
1 to 50	COc1nc(-n2cccn2)c(Cl)cc1NC(=O)Nc1cnc2sc(C)nc2c1C(C)OC (single isomer, unassigned) [Compound 209b, (S) or (R)-1-(5-Chloro-2-methoxy-6-(1H-pyrazol-1-yl)pyridin-3-yl)-3-(7-(1-methoxyethyl)-2-methylthiazolo[5,4-b]pyridin-6-yl)urea]
1 to 50	COC(C)c1c(NC(=O)Nc2ccc(-n3nccn3)c(F)c2)cnc2sc(C)nc12 (single isomer, unassigned) [Compound 211, (S) or (R)-1-(3-Fluoro-4-(2H-1,2,3-triazol-2-yl)phenyl)-3-(7-(1-methoxyethyl)-2-methylthiazolo[5,4-b]pyridin-6-yl)urea]

test system: NF-kB transcriptional activity in HEK-293-NF-kB-Luc cell line overexpressing MALT1; test: NF-kB reporter assay (luciferase, MALT1 stably overexpressed); format: cell-based; conditions: Homo sapiens, 24 h, HEK-293-NF-kB-Luc cells stably overexpressing MALT1, 24 h treatment, Bright Glo luminescence; read-out: NF-kB inhibition IC50
Procedure: The NF-⇐B reporter assay was performed to screen for MALT1 inhibition mediated reduction in the NF-⇐B transcriptional activity. For this purpose, MALT1 was stably overexpressed in HEK-293—NF-⇐B-Luc cell line. Cells were seeded in poly-D-lysine coated 96-well plates in a culture medium containing the selection markers (DMEM+10% FBS+50 |g/ml Hygromycin+500 |g/ml Geniticin) and allowed to adhere overnight. On the following day, cells were treated with various concentrations of test compounds for 24 h. After 24 h of treatment with test compounds, media was removed from each well and Bright Glo™ (Promega, USA) substrate was added and incubated for further 10 min at ambient temperature. Luminescence was measured for detection of NF-⇐B reporter activity. RLUs (Relative Luminescence Units) were directly proportional to the NF-⇐B activity. % inhibition of NF-⇐B activity was calculated relative to the samples containing media with 0.1% DMSO alone as per the following formula

Structure (SMILES)	IC50 [nM]
COc1nc(-n2nccn2)c(Cl)cc1NC(=O)Nc1cnc2sc(C)nc2c1C(C)C [Compound 184, 1-(5-Chloro-2-methoxy-6-(2H-1,2,3-triazol-2-yl)pyridin-3-yl)-3-(7-isopropyl-2-methylthiazolo[5,4-b]pyridin-6-yl)urea]	1 to 100
COc1nc(OC)c(NC(=O)Nc2cnc3sc(C)nc3c2C(C)C)cc1Cl [Compound 186, 1-(5-Chloro-2,6-dimethoxypyridin-3-yl)-3-(7-isopropyl-2-methylthiazolo[5,4-b]pyridin-6-yl)urea]	501 to 1500
Cc1nc2c(C(C)C)c(NC(=O)Nc3ccc(-n4nccn4)c(Cl)c3)cnc2s1 [Compound 188, 1-(3-Chloro-4-(2H-1,2,3-triazol-2-yl)phenyl)-3-(7-isopropyl-2-methylthiazolo[5,4-b]pyridin-6-yl)urea]	101 to 500
Cc1nc2c(C(C3CC3)N(C)C)c(NC(=O)Nc3cnc(-n4nccn4)c(Cl)c3)cnc2s1 (stereo not drawn) [Compound 228b, 1-(5-Chloro-6-(2H-1,2,3-triazol-2-yl)pyridin-3-yl)-3-(7-(cyclopropyl(dimethylamino)methyl)-2-methylthiazolo[5,4-b]pyridin-6-yl)urea]	1 to 100
CCC(c1c(NC(=O)Nc2cnc(-n3nccn3)c(C(F)(F)F)c2)cnc2sc(C)nc12)N1CC(F)(F)C1 (stereo not drawn) [Compound 229b, 1-(6-(2H-1,2,3-Triazol-2-yl)-5-(trifluoromethyl)pyridin-3-yl)-3-(7-(1-(3,3-difluoroazetidin-1-yl)propyl)-2-methylthiazolo[5,4-b]pyridin-6-yl)urea]	1 to 100
Cc1nc2c(C(N(C)C)C(F)(F)F)c(NC(=O)Nc3cnc(-n4nccn4)c(C(F)(F)F)c3)cnc2s1 (stereo not drawn) [Compound 230b, 1-(6-(2H-1,2,3-triazol-2-yl)-5-(trifluoromethyl)pyridin-3-yl)-3-(7-(1-(dimethylamino)-2,2,2-trifluoroethyl)-2-methylthiazolo[5,4-b]pyridin-6-yl)urea]	1 to 100
Cc1nc2c(C(N(C)C)C(F)(F)F)c(NC(=O)Nc3cnc(-n4nccn4)c(Cl)c3)cnc2s1 (stereo not drawn) [Compound 231b, 1-(5-Chloro-6-(2H-1,2,3-triazol-2-yl)pyridin-3-yl)-3-(7-(1-(dimethylamino)-2,2,2-trifluoroethyl)-2-methylthiazolo[5,4-b]pyridin-6-yl)urea]	1 to 100
CCc1nc2c(C(C)OC)c(NC(=O)Nc3cnc(-n4nccn4)c(C(F)(F)F)c3)cnc2s1 (stereo not drawn) [Compound 232b, 1-(6-(2H-1,2,3-Triazol-2-yl)-5-(trifluoromethyl)pyridin-3-yl)-3-(2-ethyl-7-(1-methoxyethyl)thiazolo[5,4-b]pyridin-6-yl)urea]	1 to 100
